Source: publication PMC9821324, “Pinostrobin Suppresses the α-Melanocyte-Stimulating Hormone-Induced Melanogenic Signaling Pathway” (International Journal of Molecular Sciences, 2023)

Molecular target: T1, mushroom tyrosinase (Agaricus bisporus, UniProt C7FF04)
T1 construct: gene PPO3
Assay: cell-free mushroom tyrosinase assay with L-tyrosine, absorbance at […] nm, single concentration […]
Assay type: biochemical
Conditions: read-out: % inhibition at 250 nM

T1 sequence (C7FF04 2-392): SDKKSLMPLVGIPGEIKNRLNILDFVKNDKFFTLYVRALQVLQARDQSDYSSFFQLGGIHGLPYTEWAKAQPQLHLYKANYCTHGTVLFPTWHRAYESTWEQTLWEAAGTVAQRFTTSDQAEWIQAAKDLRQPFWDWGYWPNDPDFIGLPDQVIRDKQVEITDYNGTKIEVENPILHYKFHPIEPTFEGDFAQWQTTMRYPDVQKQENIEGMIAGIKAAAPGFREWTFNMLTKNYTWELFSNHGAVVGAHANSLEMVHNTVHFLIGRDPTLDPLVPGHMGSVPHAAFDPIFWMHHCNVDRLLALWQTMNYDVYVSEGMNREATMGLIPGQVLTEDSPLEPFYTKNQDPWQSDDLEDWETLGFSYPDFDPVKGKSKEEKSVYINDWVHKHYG

Q: With `NC(=S)Nc1ccccc1` [PTU, phenylthiourea] as the compound, how does the inhibition at 0.25 µM read?
A: 74.7%
